Assay [1] relates to Proteasom. As to the kind of experiment: Proteasome activity (suc-LLVY-MCA hydrolysis) in lysate of treated fibroblasts. It counts as cell-based, menschlich. How it is done: (§1) Dermale Fibroblasten (isoliert aus menschlicher Vorhaut) wurden bei 37°C und 5 Vol.-% CO2 mit Dulbecco's Minimal Essential Medium High Glucose unter Zusatz von 1 Gew.-% Glutamax, 1 Gew.-% Penicillin/Streptomycin und 10 Gew.-% fetalem Kälberserum kultiviert. Zur UV-A Bestrahlung mittels eines Teilkörperbestrahlungshimmels Typ Sellamed 2000 (Dr. Sellmeier; Bestrahlungsspektrum: 340-400 nm, Maximum: 360-380 nm) wurden die Zellen in Petrischalen ausplattiert (ca. 3,8 x 10^4 Zellen/cm^2; zuzüglich 2 Tage Wachstum, danach noch subkonfluent), das Zellmedium abgesaugt, die Zellen einmal mit PBS gewaschen und die UV-A Bestrahlung anschließend in PBS durchgeführt (Dosierung über Zeitintervall bis zu 14min bei […]). Nach UV-A Bestrahlung und Entfernung des PBS wurden die Zellen wieder mit Zellmedium versetzt und bis zur Zellernte bei 37°C, 5 Vol.-% CO2 aufbewahrt. Nach Zelltrypsinierung und -schabung erfolgte unter Zusatz von hypotonem Salzpuffer (10 mM HEPES, 24 mM KCl, 10 mM MgCl2, pH 7,5) und Anwendung der Frier-Tau-Technik die Herstellung des Zelllysats. Nicht lysierte Zellen sowie Membranen und Zellkerne wurden durch zehnminütige Zentrifugation bei 14000 rpm und 4°C abgetrennt.
(§2) Getestete Substanzen: • Natriumascorbylphosphat (0,025 mg/ml), BASF, entsprechend einem Aktivsubstanzgehalt in der Testlösung von 0,0025 Gew.-% • Hypotaurin 0,25 (mg/ml), Siber Hegner (entsprechend einem Aktivsubstanzgehalt in der Testlösung von 0,025 Gew.-%) • Kombuchka (7,5 mg/ml), Sederma (entsprechend einem Aktivsubstanzgehalt in der Testlösung von 0,02 - 0,053 Gew.-%) • Glistin (0,5 mg/ml), Exsymol (entsprechend 4,5 - 5,5' 10^-4 Gew.-% Glutamylamidoethylindol in der Testlösung) • Gingkoselect Phytosome (0,15 mg/ml), Indena (entsprechend 0,9 - 1,8 · 10^-5 Gew.-% […]-Aktivsubstanz in der Testlösung), wird vom Hersteller als Antioxidans ausgelobt.
Die Behandlung der Fibroblasten mit Antioxidantien erfolgte wie unter 2.3.3. Das Zelllysat wurde mit einem Puffer, der Tris-HCl (pH=7,8 bei 37°C), KCI, Mg-Acetat, MgCl2 und Dithiothreitol enthält, versetzt. Nach Zugabe von 10µl einer 2mM Stammlösung von suc-LLVY-MCA (N-Succinyl-Leucin-Leucin-Valin-Tyrosin-4-Methyl-cumaryl-7-amid) erfolgte eine 30-minütige Inkubation bei 37°C. Anschließend wurde die Fluoreszenz des Hydrolyseprodukts MCA (4-Methyl-cumaryl-7-amid) am Fluorimeter bestimmt (Anregungswellenlänge: 390 nm, Detektionswellenlänge: 460nm) und die MCA-Konzentration unter Verwendung einer Standardreihe bestimmt.

Assay [2] has as its system Dermale Fibroblasten. As to the kind of experiment: Protein carbonyls in vitro (ELISA) in UV-A irradiated and non-irradiated fibroblasts. It counts as cell-based, menschlich. The conditions noted are these: for durch UV-A-Bestrahlung induzierter Anstieg des Proteincarbonyl-Gehalts: summary in words of the fibroblast results. How it is done: as §1, §2
Fibroblasten wurden für 16 Stunden mit Antioxidantien-haltigem Medium versetzt. Nach UV-A Bestrahlung in PBS wurden die Fibroblasten anschließend wieder für 3 Stunden mit Antioxidantien-haltigem Medium versetzt und lysiert. Die Detektion der Proteincarbonyle erfolgte per ELISA Technik nach Buss et al. mit Veränderungen nach Sitte et al.. Das Zelllysat wurde mit Dinitrophenylhydrazin versetzt, und die gebildeten Hydrazone wurden mit Hilfe des primären Antikörpers Anti-Dinitrophenyl-Rabbit-IgG detektiert. Als sekundärer Antikörper wurde der Anti-Rabbit-IgG-Antikörper (Peroxidase-konjugiert) verwendet und die Menge des gebundenen, sekundären Antikörpers nach Entwicklung mit o-Phenylendiamin und Wasserstoffperoxid detektiert.
Background: In an ELISA, binding on a coated surface is turned into a signal by an enzyme label.

The mark [3] stands for this setting: bestrahlt (UV-A), unbehandelt bestrahlt = 23,41, unbehandelt und unbestrahlt = 100 %.
Setting [4] is: unbestrahlt, unbehandelt = 100 %.
Setting [5] is: bestrahlt (UV-A), unbehandelt bestrahlt = 171,43, test concentrations: Natriumascorbylphosphat 0,025 mg/ml, Hypotaurin 0,25 mg/ml, Kombuchka 7,5 mg/ml, Glistin 0,5 mg/ml, Gingkoselect Phytosome 0,15 mg/ml.

On to `NC(CCC(=O)O)C(=O)NCCc1c[nH]c2ccccc12` (stereo not drawn) [Glistin, Glutamylamidoethylindol], for which the “Proteasomaktivität MW (%)” value in assay [1] (setting [3]) is on record as 24,94%; in assay [1] (setting [4]), 119,32%. In addition, the “Proteincarbonyl-Gehalt [%, relativ zum unbehandelten und unbestrahlten Zustand]” value is on record as 139,96% in assay [2] (setting [5]) and 112,69% in assay [2] (unbestrahlt, unbehandelt = 100). Moreover, the “durch UV-A-Bestrahlung induzierter Anstieg des Proteincarbonyl-Gehalts” value in assay [2] is reported as “reduzieren”.

In the case of `NCCS(=O)O` [Hypotaurin], the “Proteasomaktivität MW (%)” value in assay [1] (setting [3]) is on record as 32,9%; in assay [1] (setting [4]) it was 144,37%. In addition, the “Proteincarbonyl-Gehalt [%, relativ zum unbehandelten und unbestrahlten Zustand]” value in assay [2] (setting [5]) is 151,3%; in assay [2] (unbestrahlt, unbehandelt = 100) it was 128,32%. In assay [2], the “durch UV-A-Bestrahlung induzierter Anstieg des Proteincarbonyl-Gehalts” value was “reduzieren”.

As for `O=C1O[C@H]([C@@H](O)CO)C(O)=C1OP(=O)(O)O` [Natriumascorbylphosphat], the “Proteasomaktivität MW (%)” value was 33,36% in assay [1] (setting [3]) and 104,74% in assay [1] (setting [4]). Moreover, the “Proteincarbonyl-Gehalt [%, relativ zum unbehandelten und unbestrahlten Zustand]” value in assay [2] (setting [5]) is 124,18%; in assay [2] (unbestrahlt, unbehandelt = 100), 86,82%. Moreover, the “durch UV-A-Bestrahlung induzierter Anstieg des Proteincarbonyl-Gehalts” value in assay [2] was “reduzieren”.

(Values after patent EP1932513A2, “Compounds for improving the visual appearance of the skin” (Henkel AG & Co. KGaA, priority 2006, dated 2008).)
